Data as given in PubChem BioAssay (NCI).
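Tested at 5 concentrations; 48 h exposure; 96-well plates; endpoints linearly interpolated, else capped at highest concentration. GI50 marks 50% less growth. TGI is the concentration that stops growth completely.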

Assays:
Experiment in all cases: NCI anticancer screen, dose series, 48 h
[1] = system: CAKI-1 renal
[2] = system: HOP-92 NSCLC
[3] = system: HT29 colon
[4] = system: NCI-H23 lung
[5] = system: NCI-H460 lung
[6] = system: SF-539 CNS
[7] = system: SK-MEL-5 melanoma
[8] = system: U251 CNS
[9] = system: RXF 393 renal

Row | Structure (SMILES) | TGI [1] | TGI [2] | TGI [3] | TGI [4] | TGI [5] | TGI [6] | TGI [7] | TGI [8] | TGI [9] | GI50 [2] | GI50 [3] | GI50 [4] | GI50 [5] | GI50 [6] | GI50 [7] | GI50 [8] | GI50 [1] | GI50 [9]
1 | Cc1nc2c(=O)n(C)c(=O)nc-2n(-c2ccc(Cl)cc2)c1C | > 100 µM | > 100 µM | > 100 µM | > 100 µM | > 100 µM | > 100 µM | > 100 µM | > 100 µM |  |  |  |  |  |  |  |  |  | 
2 | COCC(O)CN1C(N)=NC(O)C1O (stereo not given) | > 100 µM | > 100 µM | > 100 µM | > 100 µM | > 100 µM | > 100 µM | > 100 µM | > 100 µM | > 100 µM |  |  |  |  |  |  |  |  | 
3 | O=C1[C@@H]2C3C=CC([C@H]4C(=O)N(CO)C(=O)[C@@H]34)[C@@H]2C(=O)N1CO | > 100 µM | > 100 µM | > 100 µM | > 100 µM | > 55.1 µM | > 100 µM | > 100 µM | > 100 µM | > 77.8 µM |  |  |  |  |  |  |  |  | 
4 | O=C1c2ccccc2CC1C1(O)C(=O)Nc2c(Cl)cc(Cl)cc21 (stereo not given) | > 100 µM | > 100 µM | > 100 µM | > 100 µM | > 100 µM |  | > 100 µM | > 100 µM | 85.8 µM |  |  |  |  |  |  |  |  | 
5 | NCCN.O=N[O-].O=N[O-].O=N[O-].O=N[O-].[Co+3].[K+] |  | > 100 µM | > 100 µM | > 100 µM | > 100 µM | > 100 µM | > 100 µM | > 100 µM |  | 85.7 µM | > 100 µM | > 100 µM | > 100 µM | > 100 µM | > 100 µM | > 100 µM |  | 
6 | CCCCCC1C2C(=O)NC(=O)C1C(=O)NC2=O (stereo not given) | > 100 µM | > 100 µM | > 100 µM | > 100 µM | > 100 µM | > 100 µM | > 100 µM |  | > 100 µM |  |  |  |  |  |  |  |  | 
7 | CCN(CC)CCCC(C)NC(=S)N/N=C(\C)c1ccccn1 (stereo not given) | > 100 µM | > 100 µM | > 100 µM | > 100 µM | 15 µM | 82 µM | 4.2 µM | > 100 µM | 6.81 µM | 3.98 µM | 5.59 µM | 5.22 µM | 2.33 µM | 3.33 µM | 1.7 µM | 2.78 µM | 4.56 µM | 2.14 µM
8 | Cc1cc(N2CCOCC2)nc(N(CCNc2ccnc3cc(Cl)ccc23)Cc2cccs2)n1 |  | 1.93 µM |  | > 100 µM |  | 3.32 µM | 2.96 µM | 3.64 µM | 3.47 µM | 0.22 µM |  | 3 µM |  | 1.81 µM | 1.59 µM | 1.88 µM |  | 1.74 µM
9 | Cc1nn(C(=O)CC(=O)Nc2ccccc2Cl)c(C)c1N=Nc1ccccc1Cl | > 100 µM | > 100 µM | > 100 µM | > 100 µM | > 100 µM | > 100 µM | > 100 µM | > 100 µM | > 100 µM |  |  |  |  |  |  |  |  | 
10 | O=S(O)CCCSSCCCCSSCCCS(=O)O | > 100 µM |  | > 100 µM | > 100 µM | > 100 µM | > 100 µM | > 100 µM | > 100 µM | > 100 µM |  |  |  |  |  |  |  |  | 
11 | O=C(Nc1cccc(Cl)c1)c1cc2cc(N=Nc3ccc(Br)cc3)ccc2oc1=O | > 100 µM | > 100 µM | > 100 µM | 64.3 µM | > 100 µM | > 100 µM | > 100 µM | > 100 µM | > 100 µM |  |  |  |  |  |  |  |  | 
12 | CC(=O)OC12CCCCC1C1(CCCC1)NC2=O (stereo not given) |  |  | > 100 µM | > 100 µM | > 100 µM | > 100 µM |  | > 100 µM | > 100 µM |  |  |  |  |  |  |  |  | 
13 | Cc1ccc(S(=O)(=O)c2ccccn2)cc1 | > 100 µM | > 100 µM | > 100 µM | > 100 µM | > 100 µM | > 100 µM | > 100 µM | > 100 µM | > 100 µM |  |  |  |  |  |  |  |  | 
14 | Nc1n[nH]c(=O)c2c1c(Br)cn2C1OC(CO)C(O)C1O (stereo not given) | > 100 µM | 7.59 µM | > 100 µM | 25 µM | > 100 µM | 25.8 µM | 45.4 µM | > 54.6 µM | 10.3 µM |  |  |  |  |  |  |  |  | 
15 | CN(C)CCCn1c2c(c3ccc([N+](=O)[O-])cc3c1=O)C(=O)c1ccccc1-2 | 19.7 µM | > 100 µM | 21.3 µM | 24.2 µM | 19.4 µM |  | 16.6 µM | 27.7 µM |  | 9.78 µM | 3.76 µM | 4.95 µM | 2.69 µM |  | 3.79 µM | 6.36 µM | 3.07 µM | 
16 | O=c1c2ccccc2nc(-c2ccccc2Cl)n1NC1OC(CO)C(O)C(O)C1O (stereo not given) | > 100 µM | > 100 µM | > 100 µM | > 100 µM | > 100 µM | > 100 µM | > 100 µM | > 100 µM |  |  |  |  |  |  |  |  |  | 
17 | S=C(N/N=C/c1ccccc1)NC1CC(c2ccccc2)Oc2ccccc21 (stereo not given) | > 100 µM | 10.2 µM | > 100 µM | > 100 µM | > 100 µM | > 100 µM | 65.8 µM | > 100 µM |  |  |  |  |  |  |  |  |  | 
18 | COc1ccc(/C=C(\NC(=O)c2ccccc2)c2nc3ccccc3[nH]2)cc1 | > 100 µM | > 100 µM | > 100 µM | 56.1 µM | > 100 µM | > 100 µM | 29 µM | > 100 µM |  |  |  |  |  |  |  |  |  | 
19 | COC(=O)c1c(OC(=O)c2ccccc2)noc1CC(=O)OC1C=CCCC1 (stereo not given) | > 100 µM |  |  |  | > 100 µM | > 100 µM | 81.7 µM | > 100 µM | > 100 µM |  |  |  |  |  |  |  |  | 
